# pEC50: −log10 of the molar value.
# Columns and labels:
# 5-HT2 receptor = target: T1, 5-HT2 receptor (Rattus norvegicus, UniProt P14842); experiment: 5-HT2 Functional Assay: Phosphoinositide (PI) Turnover Assay; type: cell-based; settings: for pEC50: [3H]inositol phosphates production in A7r5 rat vascular smooth muscle cells
# T1 construct: A7r5 rat vascular smooth muscle cells; endogenous in cells; host or cells: A7r5 rat vascular smooth muscle cells
# Procedure: 5-HT2 Functional Assay: Phosphoinositide (PI) Turnover Assay
# The relative agonist activity of serotonergic compounds at the 5-HT2 receptor can be determined in vitro using the ability of the compounds to stimulate the production of [^3H]inositol phosphates in [^3H]myo-inositol-labeled A7r5 rat vascular smooth muscle cells by their ability to activate the enzyme phospholipase C. These cells are grown in culture plates, maintained in a humidified atmosphere of 5% CO2 and 95% air and fed semi-weekly with Dulbecco's modified Eagle medium (DMEM) containing 4.5 g/l glucose and supplemented with 2 mM glutamine, 10 μg/ml gentamicin, and 10% fetal bovine serum. For the purpose of conducting the phosphoinositide (PI) turnover experiments, the A7r5 cells are cultured in 24-well plates as previously [J. Pharmacol. Expt. Ther., 286, 411 (1998)]. Confluent cells are exposed for 24–30 hrs to 1.5 μCi [^3H]-myo-inositol (18.3 Ci/mmol) in 0.5 ml of serum-free medium. Cells are then rinsed once with DMEM/F-12 containing 10 mM LiCl prior to incubation with the test agent (or solvent as the control) in 1.0 ml of the same medium for 1 hr at 37° C., after which the medium is aspirated and 1 ml of cold 0.1 M formic acid added to stop the reaction. The chromatographic separation of [3H]-inositol phosphates ([^3H]-IPs) on an AG-1-X8 column is performed as previously described [J. Pharmacol. Expt. Ther. 286, 411 (1998)] with sequential washes with H2O and 50 mM ammonium formate, followed by elution of the total [^3H]-IPs fraction with 1.2 M ammonium formate containing 0.1 M formic acid. The eluate (4 ml) is collected, mixed with 15 ml scintillation fluid, and the total [^3H]-IPs determined by scintillation counting on a beta-counter. Concentration-response data are analyzed by the sigmoidal fit function of the Origin Scientific Graphics software (Microcal Software, Northampton, Mass.) to determine agonist potency (EC50 value) and efficacy (Emax). Serotonin (5-HT) is used as a positive control (standard) agonist compound and the efficacy of test compounds is compared to that of 5-HT (set at 100%). The concentration of the compound needed to stimulate the production of [^3H]-IPs by 50% of the maximum response is termed the EC50 value.
# [1] = A7r5 cells, efficacy compared to that of 5-HT (set at 100%)
# T1 sequence (P14842 whole entry): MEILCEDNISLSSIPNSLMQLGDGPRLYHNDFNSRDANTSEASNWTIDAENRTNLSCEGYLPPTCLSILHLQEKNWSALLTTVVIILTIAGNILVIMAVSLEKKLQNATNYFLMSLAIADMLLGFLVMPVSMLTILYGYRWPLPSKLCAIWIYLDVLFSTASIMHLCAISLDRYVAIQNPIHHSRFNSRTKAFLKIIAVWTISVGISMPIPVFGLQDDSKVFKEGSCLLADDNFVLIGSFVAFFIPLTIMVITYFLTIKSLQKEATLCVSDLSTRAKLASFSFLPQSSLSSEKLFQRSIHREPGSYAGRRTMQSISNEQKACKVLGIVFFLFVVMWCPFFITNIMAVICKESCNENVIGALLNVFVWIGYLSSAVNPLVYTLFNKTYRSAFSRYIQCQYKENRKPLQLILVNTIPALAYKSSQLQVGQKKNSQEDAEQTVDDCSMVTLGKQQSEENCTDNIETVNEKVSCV
Compound,melting point [°C],Emax (5-HT2 receptor; [1]) [%],pEC50 (5-HT2 receptor),"Efficacy (Emax, %) (5-HT2 receptor; [1]) [%]"
CC(N)Cn1ncc2ccc(OC(=O)C(C)(C)C)cc21.O=C(O)/C=C/C(=O)O (centres unmarked),180 to 182,,,
"COc1ccc2c(C)nn(CC(C)N)c2c1.O=C(O)/C=C/C(=O)O (centres unmarked) [Example 1, 2-(6-Methoxy-3-methyl-indazol-1-yl)-1-methylethylamine Fumarate]",150 to 152,71,6.24,
"Cc1nn(CC(C)N)c2cc(O)ccc12.O=C(O)/C=C/C(=O)O (centres unmarked) [Example 2, 1-(2-Aminopropyl)-3-methyl-1H-indazol-6-ol Fumarate]",166 to 168,87,6.32,
"COc1ccc2cnn(CC(C)N)c2c1 (centres unmarked) [Example 4, 2-(6-Methoxy-indazol-1-yl)-1-methyl-ethylamine]",,73,6.61,
"COc1ccc2c(Cl)nn(CC(C)N)c2c1 (centres unmarked) [Example 5, 2-(3-Chloro-6-methoxy-indazol-1-yl)-1-methyl-ethylamine]",,64,6.27,
"CC(N)Cn1nc(Cl)c2ccc(O)cc21 (centres unmarked) [Example 6, 1-(2-Aminopropyl)-3-chloro-1H-indazol-6-ol]",,84,5.98,
"CC(N)Cc1c[nH]c2ccc(O)cc12 (stereo not drawn) [α-Methylserotonin, reference compound]",,,,104

# From patent US6956036B1, “6-hydroxy-indazole derivatives for treating glaucoma” (Alcon, Inc., priority 2000, dated 2005)
